Assay results taken from patent publication US20240368135A1 (VERTEX PHARMACEUTICALS INCORPORATED, priority 2021, published 2024).
Where two headings read alike, the source gives them in different places.

Molecular target: human NaV 1.8 (Homo sapiens, UniProt Q9Y5Y9)
Assay: E-VIPR assay detecting and measuring NaV inhibition properties
Format: cell-based
Conditions: HEK cells expressing truncated human NaV 1.8
Method in brief: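 Membrane potential was followed by coumarin/oxonol FRET during electrical field stimulation of matrigel-seeded HEK cells carrying truncated human NaV1.8 plus KIR2.1. Dosing used 11 points, 3-fold steps, top 300 nM final, 0.625% DMSO, with or without 25% human serum.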

[1] = no human serum, read-out: IC50 in the E-VIPR Assay
[2] = in the presence of human serum (compound numbers followed by *), read-out: IC50 in the E-VIPR Assay, performed in the presence of human serum

Chain of human NaV 1.8 (Q9Y5Y9 126-399 limits assumed): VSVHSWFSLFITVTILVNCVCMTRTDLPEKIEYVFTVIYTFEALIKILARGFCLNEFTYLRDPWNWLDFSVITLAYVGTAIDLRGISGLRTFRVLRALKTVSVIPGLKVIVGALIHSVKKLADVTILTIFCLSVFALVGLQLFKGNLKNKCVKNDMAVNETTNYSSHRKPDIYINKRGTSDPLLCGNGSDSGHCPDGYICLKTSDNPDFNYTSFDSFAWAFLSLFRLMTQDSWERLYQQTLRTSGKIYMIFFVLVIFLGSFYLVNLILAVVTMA
Chain of human NaV 1.8 (Q9Y5Y9 660-890 limits assumed): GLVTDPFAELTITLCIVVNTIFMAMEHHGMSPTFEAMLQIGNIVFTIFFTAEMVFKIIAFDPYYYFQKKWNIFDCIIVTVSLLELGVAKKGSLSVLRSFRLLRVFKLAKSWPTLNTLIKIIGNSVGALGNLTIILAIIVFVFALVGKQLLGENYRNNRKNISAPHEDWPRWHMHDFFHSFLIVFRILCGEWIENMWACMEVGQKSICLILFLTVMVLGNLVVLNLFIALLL
Chain of human NaV 1.8 (Q9Y5Y9 1148-1722 limits assumed): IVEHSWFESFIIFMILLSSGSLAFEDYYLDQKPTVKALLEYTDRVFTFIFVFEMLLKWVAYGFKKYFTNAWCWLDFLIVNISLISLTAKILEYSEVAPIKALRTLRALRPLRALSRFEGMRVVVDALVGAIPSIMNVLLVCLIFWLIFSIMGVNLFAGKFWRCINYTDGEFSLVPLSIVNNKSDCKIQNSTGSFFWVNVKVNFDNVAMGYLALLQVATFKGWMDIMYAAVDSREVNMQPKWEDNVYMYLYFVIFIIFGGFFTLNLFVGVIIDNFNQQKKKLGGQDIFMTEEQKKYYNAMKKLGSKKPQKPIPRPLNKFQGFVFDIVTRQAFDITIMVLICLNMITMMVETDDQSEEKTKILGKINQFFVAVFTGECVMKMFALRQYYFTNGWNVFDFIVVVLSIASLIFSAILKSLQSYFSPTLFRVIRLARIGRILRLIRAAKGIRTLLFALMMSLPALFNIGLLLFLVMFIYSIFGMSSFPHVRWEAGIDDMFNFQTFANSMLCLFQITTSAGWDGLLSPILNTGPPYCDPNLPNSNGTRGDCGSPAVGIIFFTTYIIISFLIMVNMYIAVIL

| SMILES | IC50 [1] | IC50 [2] |
| --- | --- | --- |
| C[C@H]1[C@@H](c2ccc(F)c(F)c2OC(F)F)[C@H](C(=O)Nc2cc(S(C)(=O)=O)ccn2)O[C@@]1(C)C(F)(F)F (single isomer, unassigned) [Compound 72] | 10 to 100 nM |  |
| Cc1nn(CCO)cc1NC(=O)[C@H]1O[C@](C)(C(F)(F)F)[C@H](C)[C@@H]1c1ccc(F)c(F)c1OC(F)F (single isomer, unassigned) [Compound 75] | ≥ 1000 nM |  |
| Cc1nn(CCO)cc1NC(=O)[C@@H]1O[C@@](C)(C(F)(F)F)[C@@H](C)[C@H]1c1ccc(F)c(F)c1OC(F)F (single isomer, unassigned) [Compound 76] | 10 to 100 nM |  |
| C[C@@H]1[C@H](c2ccc(F)c(F)c2OC(F)F)[C@@H](C(=O)Nc2ccn(C)c(=O)c2)O[C@]1(C)C(F)(F)F (single isomer, unassigned) [Compound 77] | ≥ 1000 nM |  |
| C[C@H]1[C@@H](c2ccc(F)c(F)c2OC(F)F)[C@H](C(=O)Nc2ccn(C)c(=O)c2)O[C@@]1(C)C(F)(F)F (single isomer, unassigned) [Compound 78] | < 10 nM |  |
| C[C@@H]1[C@H](c2ccc(F)c(F)c2OC(F)F)[C@@H](C(=O)Nc2ccn3nnnc3c2)O[C@]1(C)C(F)(F)F (single isomer, unassigned) [Compound 79] | 100 to 1000 nM |  |
| C[C@H]1[C@@H](c2ccc(F)c(F)c2OC(F)F)[C@H](C(=O)Nc2ccn3nnnc3c2)O[C@@]1(C)C(F)(F)F (single isomer, unassigned) [Compound 80] | < 10 nM |  |
| C[C@@H]1[C@H](c2ccc(F)c(F)c2OC(F)F)[C@@H](C(=O)Nc2ccnc(C(O)CO)c2)O[C@]1(C)C(F)(F)F (single isomer, unassigned) [Compound 81] | 100 to 1000 nM |  |
| C[C@H]1[C@@H](c2ccc(F)c(F)c2OC(F)F)[C@H](C(=O)Nc2ccnc(C(O)CO)c2)O[C@@]1(C)C(F)(F)F (single isomer, unassigned) [Compound 82] | < 10 nM |  |
| C[C@@H]1[C@H](c2ccc(F)c(F)c2OC(F)F)[C@@H](C(=O)Nc2ccnc(C(C)(C)O)c2)O[C@]1(C)C(F)(F)F (single isomer, unassigned) [Compound 83] |  | ≥ 1000 nM |
| C[C@H]1[C@@H](c2ccc(F)c(F)c2OC(F)F)[C@H](C(=O)Nc2ccnc(C(C)(C)O)c2)O[C@@]1(C)C(F)(F)F (single isomer, unassigned) [Compound 84] | < 10 nM |  |
| C[C@H]1[C@@H](c2ccc(F)c(F)c2OC(F)F)[C@H](C(=O)Nc2ccnc(S(C)(=O)=O)c2)O[C@@]1(C)C(F)(F)F (single isomer, unassigned) [Compound 85] | < 10 nM |  |
| C[C@@H]1[C@H](c2ccc(F)c(F)c2OC(F)F)[C@@H](C(=O)Nc2ccnc(S(C)(=O)=O)c2)O[C@]1(C)C(F)(F)F (single isomer, unassigned) [Compound 86] |  | ≥ 1000 nM |
| C[C@@H]1[C@H](c2ccc(F)c(F)c2OC(F)F)[C@@H](C(=O)Nc2cc(S(C)(=O)=O)c[n+]([O-])c2)O[C@]1(C)C(F)(F)F (single isomer, unassigned) [Compound 87] |  | ≥ 1000 nM |
| C[C@H]1[C@@H](c2ccc(F)c(F)c2OC(F)F)[C@H](C(=O)Nc2cc(S(C)(=O)=O)c[n+]([O-])c2)O[C@@]1(C)C(F)(F)F (single isomer, unassigned) [Compound 88] |  | 100 to 1000 nM |
| CCS(=O)(=O)c1cc(NC(=O)[C@H]2O[C@](C)(C(F)(F)F)[C@H](C)[C@@H]2c2ccc(F)c(F)c2OC(F)F)ccn1 (single isomer, unassigned) [Compound 89] | 100 to 1000 nM |  |
| CCS(=O)(=O)c1cc(NC(=O)[C@@H]2O[C@@](C)(C(F)(F)F)[C@@H](C)[C@H]2c2ccc(F)c(F)c2OC(F)F)ccn1 (single isomer, unassigned) [Compound 90] | < 10 nM |  |
| C[C@@H]1[C@H](c2ccc(F)c(F)c2OC(F)F)[C@@H](C(=O)Nc2ccnc(CO)c2)O[C@]1(C)C(F)(F)F (single isomer, unassigned) [Compound 91] | ≥ 1000 nM |  |
| C[C@H]1[C@@H](c2ccc(F)c(F)c2OC(F)F)[C@H](C(=O)Nc2ccnc(CO)c2)O[C@@]1(C)C(F)(F)F (single isomer, unassigned) [Compound 92] | < 10 nM |  |
| C[C@@H]1[C@H](c2ccc(F)c(F)c2OC(F)F)[C@@H](C(=O)Nc2ccc(C(N)=O)nc2)O[C@]1(C)C(F)(F)F (single isomer, unassigned) [Compound 93] |  | ≥ 1000 nM |
| C[C@H]1[C@@H](c2ccc(F)c(F)c2OC(F)F)[C@H](C(=O)Nc2ccc(C(N)=O)nc2)O[C@@]1(C)C(F)(F)F (single isomer, unassigned) [Compound 94] | < 10 nM |  |
| C[C@H]1[C@@H](c2ccc(F)c(F)c2OC(F)F)[C@H](C(=O)Nc2cncc(S(C)(=O)=O)c2)O[C@@]1(C)C(F)(F)F (single isomer, unassigned) [Compound 96] | < 10 nM |  |

Second part, the molecule after the results:

| IC50 [1] | IC50 [2] | SMILES |
| --- | --- | --- |
| < 10 nM |  | CCOc1c([C@H]2[C@H](C(=O)Nc3ccnc(C(O)CO)c3)O[C@@](C)(C(F)(F)F)[C@H]2C)ccc(F)c1F (single isomer, unassigned) [Compound 104, rel-(2R*,3S*,4S*,5R*)-N-(2-(1,2-dihydroxyethyl)pyridin-4-yl)-3-(2-ethoxy-3,4-difluorophenyl)-4,5-dimethyl-5-(trifluoromethyl)tetrahydrofuran-2-carboxamide] |
| 100 to 1000 nM |  | CCOc1c(C2C(C(=O)Nc3ccnc(S(C)(=N)=O)c3)OC(C)(C(F)(F)F)C2C)ccc(F)c1F (single isomer, unassigned) [Compound 109, 3-(2-ethoxy-3,4-difluoro-phenyl)-4,5-dimethyl-N-[2-(methylsulfonimidoyl)-4-pyridyl]-5-(trifluoromethyl)tetrahydrofuran-2-carboxamide] |
| < 10 nM |  | CCOc1c(C2C(C(=O)Nc3ccnc(S(C)(=N)=O)c3)OC(C)(C(F)(F)F)C2C)ccc(F)c1F (single isomer, unassigned) [Compound 110, 3-(2-ethoxy-3,4-difluoro-phenyl)-4,5-dimethyl-N-[2-(methylsulfonimidoyl)-4-pyridyl]-5-(trifluoromethyl)tetrahydrofuran-2-carboxamide] |
| < 10 nM |  | CCOc1c([C@H]2[C@H](C(=O)Nc3ccnc(S(C)(=N)=O)c3)O[C@@](C)(C(F)(F)F)[C@H]2C)ccc(F)c1F (single isomer, unassigned) [Compound 111] |
| 100 to 1000 nM |  | CC(C)Oc1c([C@@H]2[C@@H](C(=O)Nc3ccnc(S(C)(=N)=O)c3)O[C@](C)(C(F)(F)F)[C@@H]2C)ccc(F)c1F (single isomer, unassigned) [Compound 117] |
| ≥ 1000 nM |  | CC(C)Oc1c([C@@H]2[C@@H](C(=O)Nc3ccnc(S(C)(=N)=O)c3)O[C@](C)(C(F)(F)F)[C@@H]2C)ccc(F)c1F (single isomer, unassigned) [Compound 118] |
| < 10 nM |  | CC(C)Oc1c([C@H]2[C@H](C(=O)Nc3ccnc(S(C)(=N)=O)c3)O[C@@](C)(C(F)(F)F)[C@H]2C)ccc(F)c1F (single isomer, unassigned) [Compound 119] |
| 100 to 1000 nM |  | CCOc1c([C@@H]2[C@@H](C(=O)Nc3ccnc(S(C)(=N)=O)c3)O[C@](C)(C(F)(F)F)[C@@H]2C)ccc(F)c1C (single isomer, unassigned) [Compound 126] |
| < 10 nM |  | CCOc1c([C@H]2[C@H](C(=O)Nc3ccnc(S(C)(=N)=O)c3)O[C@@](C)(C(F)(F)F)[C@H]2C)ccc(F)c1C (single isomer, unassigned) [Compound 128] |
| < 10 nM |  | CCOc1c([C@H]2[C@H](C(=O)Nc3ccnc(S(C)(=O)=NC)c3)O[C@@](C)(C(F)(F)F)[C@H]2C)ccc(F)c1C (single isomer, unassigned) [Compound 130] |
| 100 to 1000 nM |  | COc1c(C2C(C(=O)Nc3ccn4nnnc4c3)OC(C)(C(F)(F)F)C2C)ccc(F)c1C (single isomer, unassigned) [Compound 133, 3-(4-fluoro-2-methoxy-3-methyl-phenyl)-4,5-dimethyl-N-(tetrazolo[1,5-a]pyridin-7-yl)-5-(trifluoromethyl)tetrahydrofuran-2-carboxamide] |
| < 10 nM |  | COc1c(C2C(C(=O)Nc3ccn4nnnc4c3)OC(C)(C(F)(F)F)C2C)ccc(F)c1C (single isomer, unassigned) [Compound 134, 3-(4-fluoro-2-methoxy-3-methyl-phenyl)-4,5-dimethyl-N-(tetrazolo[1,5-a]pyridin-7-yl)-5-(trifluoromethyl)tetrahydrofuran-2-carboxamide] |
| < 10 nM |  | COc1c([C@H]2[C@H](C(=O)Nc3ccnc(C(O)CO)c3)O[C@@](C)(C(F)(F)F)[C@H]2C)ccc(F)c1C (single isomer, unassigned) [Compound 135] |
|  | ≥ 1000 nM | COc1c([C@@H]2[C@@H](C(=O)Nc3ccnc(C(O)CO)c3)O[C@](C)(C(F)(F)F)[C@@H]2C)ccc(F)c1C (single isomer, unassigned) [Compound 136] |
|  | ≥ 1000 nM | COc1c([C@@H]2[C@@H](C(=O)Nc3cc(C(O)CO)ncc3F)O[C@](C)(C(F)(F)F)[C@@H]2C)ccc(F)c1C (single isomer, unassigned) [Compound 139] |
|  | 10 to 100 nM | COc1c([C@H]2[C@H](C(=O)Nc3cc(C(O)CO)ncc3F)O[C@@](C)(C(F)(F)F)[C@H]2C)ccc(F)c1C (single isomer, unassigned) [Compound 140] |
|  | ≥ 1000 nM | COc1c(C2C(C(=O)Nc3ccnc(C(O)C(C)O)c3)OC(C)(C(F)(F)F)C2C)ccc(F)c1C (single isomer, unassigned) [Compound 142] |
|  | ≥ 1000 nM | COc1c(C2C(C(=O)Nc3ccnc(C(O)C(C)O)c3)OC(C)(C(F)(F)F)C2C)ccc(F)c1C (single isomer, unassigned) [Compound 143] |
| < 10 nM |  | COc1c(C2C(C(=O)Nc3ccnc(C(O)C(C)O)c3)OC(C)(C(F)(F)F)C2C)ccc(F)c1C (single isomer, unassigned) [Compound 144] |
|  | ≥ 1000 nM | COc1c(C2C(C(=O)Nc3ccnc(C(O)C(C)O)c3)OC(C)(C(F)(F)F)C2C)ccc(F)c1C (single isomer, unassigned) [Compound 146] |
